Tested on: maize plants
Assay: Pot trial: single root-exudate metabolites applied to soil, dry biomass of maize plants at 6 weeks
Assay type: in vivo
Details: for Dry biomass of maize plants at 6 weeks of growth, dry weight: metabolite 1 kg/ha in pot with 3 kg soil (assimilable P 0.5 ppm), triple superphosphate 100 P2O5 units/ha
Description: These metabolites were: gluconic acid, glyceric acid, lactic acid, glucose, threonic acid, fructose, aspartic acid, serine, glycerol, arabinose and glutamine. […] The effect of the metabolites was compared with a negative control (no treatment) and a positive control with a conventional phosphate fertiliser (triple superphosphate at a dose of 100 phosphorus fertiliser units —P2O5— per hectare). […] This level of assimilable phosphorus corresponds to 4.5 kg of P2O5 per hectare (considering 30 centimetres of arable soil and an average density of 1,300 kg/m^3, the mass per hectare would be approximately 3,900 tonnes).

SMILES	Dry biomass of maize plants at 6 weeks of growth, dry weight [g]	Growth enhancement in maize (in words) (1 kg/ha, pot trial)
N[C@@H](CC(=O)O)C(=O)O [Aspartic acid]	1.16	
CC(O)C(=O)O (centres unmarked) [Lactic acid]	1.73	
O=C(O)[C@@H](O)[C@H](O)CO [Threonic acid]	1.14	
O=C(O)[C@H](O)[C@@H](O)[C@H](O)[C@H](O)CO [Gluconic acid]	1.77	
O=C[C@@H](O)[C@H](O)[C@H](O)CO [Arabinose]	1.26	
O=C(CO)[C@@H](O)[C@H](O)[C@H](O)CO [Fructose]	1.38	
OCC(O)CO [Glycerol]	1.30	
O=C(O)C(O)CO (centres unmarked) [Glyceric acid, 2,3-dihydroxypropanoic acid]	1.93	the most growth-enhancing metabolite in maize
NC(=O)CC[C@H](N)C(=O)O [Glutamine]	1.55	
N[C@@H](CO)C(=O)O [Serine]	1.31	
